# How the values were obtained:
# Assay in all cases: Kinase inhibitor library screening, PrestoBlue cell viability, 1 or 10 μM, 72 h
# [1] = system: A375 cells (parental)
# [2] = system: 501Mel cells (parental)
# Summary of the method: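 Two concentrations of every kinase inhibitor were tested on each melanoma line and its resistant counterparts, and cell survival was quantified by PrestoBlue against untreated wells.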
# [3] = system: A375-XP cells (Vemurafenib-resistant)
# [4] = system: IGR37-XP cells (Vemurafenib-resistant)
# [5] = system: IGR37 cells (parental)
# [6] = system: 501Mel-XP cells (Vemurafenib-resistant)
# [7] = system: 501Mel-GP cells (Dabrafenib-resistant)
# [8] = system: IGR37-GP cells (Dabrafenib-resistant)
# [9] = system: A375-GP cells (Dabrafenib-resistant)
# [10] = 501Mel Parental, 1μΜ, 72 h, in %
# [11] = 501Mel Parental, 10μΜ, 72 h, in %
# [12] = IGR37 Parental, 10μΜ, 72 h, in %
smiles,measurement,setting,value
CC(C)(C)c1cc(C=C(C#N)C#N)cc(Br)c1O [AG-1024],"cell viability, A375 Parental, 1μΜ","[1]; A375 Parental, 1μΜ, 72 h, in %",99.7
same,"cell viability, A375 Parental, 10μΜ","[1]; A375 Parental, 10μΜ, 72 h, in %",86.3
same,"cell viability, 501Mel Parental, 1μΜ",[2]; [10],98.8
same,"cell viability, 501Mel Parental, 10μΜ",[2]; [11],98.3
same,"cell viability, A375 XP, 1μΜ","[3]; A375 XP, 1μΜ, 72 h, in %",106.8
same,"cell viability, A375 XP, 10μΜ","[3]; A375 XP, 10μΜ, 72 h, in %",89.1
same,"cell viability, IGR37 XP, 10μΜ","[4]; IGR37 XP, 10μΜ, 72 h",46%
same,"cell viability, IGR37 XP, 1μΜ","[4]; IGR37 XP, 1μΜ, 72 h, in %",95.7
same,"cell viability, IGR37 Parental, 10μΜ",[5]; [12],96.2
same,"cell viability, 501Mel XP, 1μΜ","[6]; 501Mel XP, 1μΜ, 72 h, in %",99.5
same,"cell viability, 501Mel XP, 10μΜ","[6]; 501Mel XP, 10μΜ, 72 h, in %",85.0
same,"cell viability, 501Mel GP, 1μΜ","[7]; 501Mel GP, 1μΜ, 72 h, in %",109.0
same,"cell viability, 501Mel GP, 10μΜ","[7]; 501Mel GP, 10μΜ, 72 h, in %",85.4
same,"cell viability, IGR37 GP, 10μΜ","[8]; IGR37 GP, 10μΜ, 72 h",76.8%
same,"cell viability, IGR37 GP, 1μΜ","[8]; IGR37 GP, 1μΜ, 72 h, in %",96.1
same,"cell viability, A375 GP, 1μΜ","[9]; A375 GP, 1μΜ, 72 h, in %",98.0
same,"cell viability, A375 GP, 10μΜ","[9]; A375 GP, 10μΜ, 72 h, in %",86.9
CC(C)(O)CC(=O)NCCn1ccc2ncnc(Nc3ccc(Oc4cccc(C(F)(F)F)c4)c(Cl)c3)c21 [TAK-285],viability at 1 µM,"[1]; Homo sapiens, A-375, 72 h, read-out: cell viability, A375 Parental, 1μΜ",102%
same,viability at 10 µM,"[1]; Homo sapiens, A-375, 72 h, read-out: cell viability, A375 Parental, 10μΜ",90.5%
same,viability at 1 µM,"[2]; Homo sapiens, 72 h, read-out: cell viability, 501Mel Parental, 1μΜ",101%
same,viability at 10 µM,"[2]; Homo sapiens, 72 h, read-out: cell viability, 501Mel Parental, 10μΜ",99%
same,viability at 1 µM,"[3]; Homo sapiens, A-375, 72 h, read-out: cell viability, A375 XP, 1μΜ",108%
same,viability at 10 µM,"[3]; Homo sapiens, A-375, 72 h, read-out: cell viability, A375 XP, 10μΜ",87.7%
same,viability at 1 µM,"[4]; Homo sapiens, IGR-37, 72 h, read-out: cell viability, IGR37 XP, 1μΜ",87.2%
same,viability at 10 µM,"[4]; Homo sapiens, IGR-37, 72 h, read-out: cell viability, IGR37 XP, 10μΜ",48.4%
same,viability at 1 µM,"[5]; Homo sapiens, IGR-37, 72 h, read-out: cell viability, IGR37 Parental, 1μΜ",108%
same,viability at 10 µM,"[5]; Homo sapiens, IGR-37, 72 h, read-out: cell viability, IGR37 Parental, 10μΜ",99.7%
same,viability at 1 µM,"[6]; Homo sapiens, 72 h, read-out: cell viability, 501Mel XP, 1μΜ",94.8%
same,viability at 10 µM,"[6]; Homo sapiens, 72 h, read-out: cell viability, 501Mel XP, 10μΜ",83.2%
same,viability at 1 µM,"[7]; Homo sapiens, 72 h, read-out: cell viability, 501Mel GP, 1μΜ",104%
same,viability at 10 µM,"[7]; Homo sapiens, 72 h, read-out: cell viability, 501Mel GP, 10μΜ",87.8%
same,viability at 1 µM,"[8]; Homo sapiens, IGR-37, 72 h, read-out: cell viability, IGR37 GP, 1μΜ",90.8%
same,viability at 10 µM,"[8]; Homo sapiens, IGR-37, 72 h, read-out: cell viability, IGR37 GP, 10μΜ",86%
same,viability at 1 µM,"[9]; Homo sapiens, A-375, 72 h, read-out: cell viability, A375 GP, 1μΜ",103%
same,viability at 10 µM,"[9]; Homo sapiens, A-375, 72 h, read-out: cell viability, A375 GP, 10μΜ",83.1%
CCCCOc1c(C(=O)c2c(F)cc(C)cc2F)c[nH]c2nncc1-2 [BMS-265246],cell viability (kinase inhibitor library screening),"[1]; A375 Parental, 10μΜ, 72 h",49.0%
same,cell viability (kinase inhibitor library screening),"[1]; A375 Parental, 1μΜ, 72 h",91.4%
same,cell viability (kinase inhibitor library screening),"[2]; 501Mel Parental, 1μΜ, 72 h",92.4%
same,cell viability (kinase inhibitor library screening),"[2]; 501Mel Parental, 10μΜ, 72 h",77.7%
same,cell viability (kinase inhibitor library screening),"[3]; A375 XP, 1μΜ, 72 h",94.5%
same,cell viability (kinase inhibitor library screening),"[3]; A375 XP, 10μΜ, 72 h",71.7%
same,cell viability (kinase inhibitor library screening),"[4]; IGR37 XP, 1μΜ, 72 h",85.9%
same,cell viability (kinase inhibitor library screening),"[4]; IGR37 XP, 10μΜ, 72 h",48.1%
same,cell viability (kinase inhibitor library screening),"[5]; IGR37 Parental, 1μΜ, 72 h",91.7%
same,cell viability (kinase inhibitor library screening),"[5]; IGR37 Parental, 10μΜ, 72 h",91.8%
same,cell viability (kinase inhibitor library screening),"[6]; 501Mel XP, 1μΜ, 72 h",87.1%
same,cell viability (kinase inhibitor library screening),"[6]; 501Mel XP, 10μΜ, 72 h",32.9%
same,cell viability (kinase inhibitor library screening),"[7]; 501Mel GP, 1μΜ, 72 h",94.2%
same,cell viability (kinase inhibitor library screening),"[7]; 501Mel GP, 10μΜ, 72 h",52.8%
same,cell viability (kinase inhibitor library screening),"[8]; IGR37 GP, 1μΜ, 72 h",90.7%
same,cell viability (kinase inhibitor library screening),"[8]; IGR37 GP, 10μΜ, 72 h",83.4%
same,cell viability (kinase inhibitor library screening),"[9]; A375 GP, 1μΜ, 72 h",93.5%
same,cell viability (kinase inhibitor library screening),"[9]; A375 GP, 10μΜ, 72 h",40.3%
C[C@@H](N)[C@H]1CC[C@H](C(=O)Nc2ccncc2)CC1.Cl.Cl [Y-27632 2HCl],cell viability (kinase inhibitor library screening),"[1]; A375 Parental, 10μΜ, in %",91.8
same,cell viability (kinase inhibitor library screening),"[2]; 501Mel Parental, 1μΜ, in %",96.3
same,cell viability (kinase inhibitor library screening),"[3]; A375 XP, 1μΜ, in %",103.7
same,cell viability (kinase inhibitor library screening),"[3]; A375 XP, 10μΜ, in %",107.2
same,cell viability (kinase inhibitor library screening),"[4]; IGR37 XP, 1μΜ, in %",97.8
same,cell viability (kinase inhibitor library screening),"[4]; IGR37 XP, 10μΜ, in %",70.6
same,cell viability (kinase inhibitor library screening),"[5]; IGR37 Parental, 10μΜ, in %",97.4
same,cell viability (kinase inhibitor library screening),"[6]; 501Mel XP, 1μΜ, in %",90.1
same,cell viability (kinase inhibitor library screening),"[6]; 501Mel XP, 10μΜ, in %",88.2
same,cell viability (kinase inhibitor library screening),"[7]; 501Mel GP, 10μΜ, in %",87.8
same,cell viability (kinase inhibitor library screening),"[8]; IGR37 GP, 1μΜ, in %",98.0
same,cell viability (kinase inhibitor library screening),"[8]; IGR37 GP, 10μΜ, in %",91.2
same,cell viability (kinase inhibitor library screening),"[9]; A375 GP, 1μΜ, in %",97.3
same,cell viability (kinase inhibitor library screening),"[9]; A375 GP, 10μΜ, in %",96.3
CO[C@H]1C[C@@H]2CC[C@@H](C)[C@@](O)(O2)C(=O)C(=O)N2CCCC[C@H]2C(=O)O[C@H]([C@H](C)C[C@@H]2CC[C@@H](OC(=O)C(C)(CO)CO)[C@H](OC)C2)CC(=O)[C@H](C)/C=C(\C)[C@@H](O)[C@@H](OC)C(=O)[C@H](C)C[C@H](C)/C=C/C=C/C=C/1C [Temsirolimus (Torisel)],"Cell viability in kinase inhibitor library screening, A375 Parental, 10μΜ","[1]; A375 Parental, 10μΜ, 72 h",73.5
same,"Cell viability in kinase inhibitor library screening, A375 Parental, 1μΜ","[1]; A375 Parental, 1μΜ, 72 h",78.4
same,"Cell viability in kinase inhibitor library screening, 501Mel Parental, 1μΜ",[2]; [10],83.5
same,"Cell viability in kinase inhibitor library screening, 501Mel Parental, 10μΜ",[2]; [11],79.5
same,"Cell viability in kinase inhibitor library screening, A375 XP, 1μΜ","[3]; A375 XP, 1μΜ, 72 h",81.1
same,"Cell viability in kinase inhibitor library screening, A375 XP, 10μΜ","[3]; A375 XP, 10μΜ, 72 h",78.8
same,"Cell viability in kinase inhibitor library screening, IGR37 XP, 10μΜ","[4]; IGR37 XP, 10μΜ, 72 h",5.5%
same,"Cell viability in kinase inhibitor library screening, IGR37 XP, 1μΜ","[4]; IGR37 XP, 1μΜ, 72 h, in %",96.0
same,"Cell viability in kinase inhibitor library screening, IGR37 Parental, 1μΜ","[5]; IGR37 Parental, 1μΜ, 72 h, in %",79.0
same,"Cell viability in kinase inhibitor library screening, IGR37 Parental, 10μΜ",[5]; [12],82.7
same,"Cell viability in kinase inhibitor library screening, 501Mel XP, 1μΜ","[6]; 501Mel XP, 1μΜ, 72 h, in %",55.1
same,"Cell viability in kinase inhibitor library screening, 501Mel XP, 10μΜ","[6]; 501Mel XP, 10μΜ, 72 h, in %",41.2
same,"Cell viability in kinase inhibitor library screening, 501Mel GP, 1μΜ","[7]; 501Mel GP, 1μΜ, 72 h, in %",69.5
same,"Cell viability in kinase inhibitor library screening, 501Mel GP, 10μΜ","[7]; 501Mel GP, 10μΜ, 72 h, in %",60.0
same,"Cell viability in kinase inhibitor library screening, IGR37 GP, 10μΜ","[8]; IGR37 GP, 10μΜ, 72 h",41.7%
same,"Cell viability in kinase inhibitor library screening, IGR37 GP, 1μΜ","[8]; IGR37 GP, 1μΜ, 72 h, in %",91.9
same,"Cell viability in kinase inhibitor library screening, A375 GP, 1μΜ","[9]; A375 GP, 1μΜ, 72 h",81.2
same,"Cell viability in kinase inhibitor library screening, A375 GP, 10μΜ","[9]; A375 GP, 10μΜ, 72 h",73.7
FC(F)(F)c1ccc(Nc2nc3ccc(Oc4ccnc(-c5ncc(C(F)(F)F)[nH]5)c4)cc3[nH]2)cc1 [Raf265 derivative],cell viability (kinase inhibitor library screening),"[1]; A375 Parental, 1μΜ, in %",104.6
same,cell viability (kinase inhibitor library screening),"[1]; A375 Parental, 10μΜ, in %",74.8
same,cell viability (kinase inhibitor library screening),"[2]; 501Mel Parental, 10μΜ, in %",91.6
same,cell viability (kinase inhibitor library screening),"[3]; A375 XP, 10μΜ, in %",66.1
same,cell viability (kinase inhibitor library screening),"[4]; IGR37 XP, 1μΜ, in %",106.8
same,cell viability (kinase inhibitor library screening),"[4]; IGR37 XP, 10μΜ, in %",69.4
same,cell viability (kinase inhibitor library screening),"[5]; IGR37 Parental, 1μΜ, in %",104.0
same,cell viability (kinase inhibitor library screening),"[5]; IGR37 Parental, 10μΜ, in %",102.6
same,cell viability (kinase inhibitor library screening),"[6]; 501Mel XP, 1μΜ, in %",116.2
same,cell viability (kinase inhibitor library screening),"[6]; 501Mel XP, 10μΜ, in %",77.9
same,cell viability (kinase inhibitor library screening),"[7]; 501Mel GP, 10μΜ, in %",88.7
same,cell viability (kinase inhibitor library screening),"[8]; IGR37 GP, 1μΜ, in %",94.6
same,cell viability (kinase inhibitor library screening),"[8]; IGR37 GP, 10μΜ, in %",87.0
same,cell viability (kinase inhibitor library screening),"[9]; A375 GP, 1μΜ, in %",97.7
same,cell viability (kinase inhibitor library screening),"[9]; A375 GP, 10μΜ, in %",60.2

# Source: paper PMC6364417, “Kinase inhibitor library screening identifies synergistic drug combinations effective in sensitive and resistant melanoma cells” (Journal of Experimental & Clinical Cancer Research : CR, 2019)
